Experimental data from patent publication US9023616B2, “Oil producing microbes and method of modification thereof” (DSM Nutritional Products AG, priority 2006, dated 2015).

Columns and labels:
[1] = test system: ONC-T18; assay: Carotenoid content of ONC-T18 exposed to Norflurazon; assay type: cell-based, Thraustochytrium sp. ONC-T18
Method: Cells were harvested by centrifugation at 3800×g and washed with phosphate buffered saline. Then resuspended in 10× volume of acetone (Sigma-Aldrich, St Louis, Mo., USA), agitated for 5 minutes at 200 RPM, centrifuged at 3,800×g for 5 mins and concentrated to dryness by N2 evaporation. Followed by resuspension in a minimal amount of 10% acetone in hexane prior to HPLC analysis. Identifications were carried out on an Agilent 1100 HPLC (Agilent, Palo Alto, Calif., USA) equipped with a variable wavelength detector set at 470 nm. Samples were injected through a Symmetry C18 guard column (Waters, Milford, Mass., USA) to a Bondclone C18 reverse-phase column (Phenomenex, Torrance, Calif., USA; […] particles; 3.9×300 mm i.d.). The injection volume was 10 μl and a flow of 1 ml min^−1 10% acetone in hexane over a 25 minute period was used. Carotenoid identity was further confirmed with mass spectrometry analysis (Micromass ESI-QT of MS, Waters, Milford, Mass., USA). Quantitative data for each carotenoid was based on the development of a calibration curve using standards (astaxanthin, zeaxanthin, canthaxanthin, echinenone and β-carotene) and comparing peak area with defined concentrations.

[2] = test system: ONC-T18; assay: Fatty acid production antagonist supplementation of ONC-T18 culture, fatty acid profile by FAME GC-FID; assay type: cell-based, Thraustochytrium sp. ONC-T18; conditions: for DHA accumulated in ONC-T18, change versus control (in words): antagonist added to medium
Method: Media containing 25 g/l sea salt and 1 g/l yeast extract was autoclaved at 120° C. for 20 minutes. Sterilized glucose was added to the media at a concentration of 9 g/l. Sethoxydim (Supleco) was dissolved in dimethyl sulfoxide at a concentration of 5 mg/ml was then added to the media at to represent a final concentration of 100 µM. 1 ml of a 24 hour pre-culture of ONC-T 18 that had been cultured in the same media was added. Culturing was carried out in a shaker (130 rpm) for four days at room temperature. After the incubation period, cells were harvested by centrifugation at 4300 rpm for 10 minutes. The cell pellets were then freeze-dried, weighed and the oil was extracted from the cells.
(§1) The lipids were extracted and derivatized to fatty acid methyl esters (FAME) for gas chromatography analysis (GC). Transesterification and extraction was done using 200 mg freeze dried cells, with C19:0 as internal standard, added transesterification reaction mix (methanol:hydrochloric acid:chloroform, 10:1:1) mixed and heated at 90° C. for 2 hours, then allowed to cool at room temperature. FAMEs were extracted by adding 1 ml water, and 2 ml hexane:chloroform (4:1), and allow organic and aqueous phases to separate. The organic layer was extracted and treated with 0.5 g of anhydrous sodium sulfate to remove particulates and residual water. The organic solvents were evaporated under a stream of argon. The FAMEs were re-suspended in 5 ml of iso-octane and analyzed by GC-FID. The percent conversion was calculated by dividing the product produced by the sum of (the product produced plus the substrate added) and then multiplying by 100.
Media containing 6 g/l sea salt, 2 g/l yeast extract, and 8 g/l L-glutamic acid monosodium salt hydrate was autoclaved at 120° C. for 20 minutes. Sterilized D+-glucose was then added to this media at a concentration of 40 g/l. Cerulenin dissolved in ethanol at a concentration of 5 mg/ml was added to 250 ml flask and the solvent was evaporated for 1 hour prior to adding the media to the flask. The amount of cerulenin in the flask represented a final concentration of 20 mg/l. ONC-T18 was then added to the medium from a plate culture and culturing occurred in a shaker (130 rpm) at room temperature for four days. After the incubation period, cells were harvested by centrifugation at 4300 rpm for 10 minutes, washed once with distilled water, and then centrifuged again at 4300 rpm for 10 minutes. The cell pellets were then freeze-dried, weighed and the oil was extracted from the cells.
as §1, with “produced+the” for “produced plus the”
Media containing 6 g/l sea salt, 2 g/l yeast extract, and 8 g/l L-glutamic acid monosodium salt hydrate was autoclaved at 120° C. for 20 minutes. Sterilized D+-glucose wad then added at a concentration of 5 g/l or was not added to the media. Oleic acid was added to the media to represent a final concentration of 2 ml/l. […]

[3] = presence of the antagonist, oleic acid without glucose

## CNc1cnn(-c2cccc(C(F)(F)F)c2)c(=O)c1Cl [norflurazon]
[1]
  carotenoid content of ONC-T18 (in words): carotenoid content decreased
[2]
  DHA accumulated in ONC-T18, change versus control (in words): increase in the content and proportion of DHA
[2]; listed as Norflurazon
  DHA accumulated in ONC-T18, change versus control (in words): DHA increase
[2]; increasing amount added
  proportion of PUFA in ONC-T18 fatty acid profile (in words): proportion of PUFA increased
[2]; [3]
  adrenic acid, lipid as percentage of total fatty acid: 0.17%
  arachidic acid, lipid as percentage of total fatty acid: 0.16%
  arachidonic acid, lipid as percentage of total fatty acid: 0.19%
  behenic acid, lipid as percentage of total fatty acid: 0.05%
  docosadienoic acid, lipid as percentage of total fatty acid: 0.03%
  docosahexaenoic acid, lipid as percentage of total fatty acid: 20.61%
  docosapentaenoic acid n-3, lipid as percentage of total fatty acid: 0.19%
  docosapentaenoic acid n-6, lipid as percentage of total fatty acid: 5.23%
  eicosadienoic acid, lipid as percentage of total fatty acid: 0.13%
  eicosapentaenoic acid, lipid as percentage of total fatty acid: 0.76%
  eicosatetraenoic acid, lipid as percentage of total fatty acid: 0.24%
  eicosatrienoic acid, lipid as percentage of total fatty acid: 0.00%
  eicosenoic acid, lipid as percentage of total fatty acid: 0.02%
  heneicosapentaenoic acid, lipid as percentage of total fatty acid: 0.00%
  hexacosanoic acid, lipid as percentage of total fatty acid: 0.00%
  homo-gamma-linolenic acid, lipid as percentage of total fatty acid: 0.18%
  lignoceric acid, lipid as percentage of total fatty acid: 0.00%
  margaric acid, lipid as percentage of total fatty acid: 1.03%
  myristic acid, lipid as percentage of total fatty acid: 11.08%
  myristoleic acid, lipid as percentage of total fatty acid: 0.12%
  nervonic acid, lipid as percentage of total fatty acid: 0.00%
  oleic acid, lipid as percentage of total fatty acid: 0.00%
  palmitic acid, lipid as percentage of total fatty acid: 40.61%
  palmitoleic acid, lipid as percentage of total fatty acid: 10.65%
  pentadecanoic acid, lipid as percentage of total fatty acid: 3.16%
  pentadecenoic acid, lipid as percentage of total fatty acid: 0.33%
  stearic acid, lipid as percentage of total fatty acid: 1.52%
  vaccenic acid, lipid as percentage of total fatty acid: 3.53%
